Results on 10 compounds are retold here after PubChem BioAssay (NCI).

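48-hour exposure; five concentrations; linearly interpolated endpoints. At the GI50, growth is halved. TGI marks complete inhibition of growth.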

Common to all, as to test: growth of human tumour cells (NCI), 48 h
Assay [1] concerns TK-10 renal.
The subject of assay [2] is UACC-62 melanoma.
Assay [3] concerns COLO 205 colon.
Assay [4] relates to NCI-H460 lung.
Assay [5] concerns UO-31 renal.
Assay [6] has as its system HOP-62 NSCLC.
In assay [7] the test system is MOLT-4 leukemia.
Assay [8] has as its system HL-60(TB) leukemia.
The subject of assay [9] is OVCAR-8 ovarian.
Assay [10] deals with SK-MEL-2 melanoma.

As to `O=C(NCCNc1nccc(-c2c(-c3cccc(O)c3)nc3sccn23)n1)c1ccccc1`, the GI50 in assay [1] was 11.7 µM; in assay [2], 0.211 µM; in assay [3] it was 3.99 µM; in [4] it was 10.4 µM; in assay [5] it was 12.2 µM; in [6], 23.5 µM. For the same compound, the GI50 is 13.5 µM in assay [7], 10.2 µM in [8], 11.1 µM in [9] and 2.94 µM in assay [10]. Besides, the TGI in assay [1] turned out to be 37.1 µM; in assay [2], 1.37 µM; in assay [3], 23.8 µM; in [4], 27.5 µM; in [5], 88.7 µM; in assay [6], 94.2 µM. The TGI in assay [7] was determined as 74.2 µM; in assay [8] it was 29.6 µM; in assay [9], 78.8 µM; in assay [10], 12.9 µM.
For `O=C1CSC2=NC3=C(CSC/C3=C\c3ccccc3)C(c3ccccc3)N12` (stereo not given), the TGI in assay [1], in assay [2], in assay [3], in assay [4], in assay [5] and in [6] was above 100 µM in each case. Moreover, the TGI in assay [7], in assay [8], in assay [9] and in assay [10] was above 100 µM in each case.
With `C#CC1(O)CCC2[C@@H]3CCc4cc(Oc5nc(F)nc(-c6c7ccccc7cn6C)n5)ccc4C3CC[C@@]21C` (stereo not given in full), the TGI in assay [1], in assay [2], in assay [3], in assay [4], in assay [5] and in assay [6] was above 100 µM in each case. Further, the TGI in assay [7], in assay [8], in [9] and in [10] was above 100 µM throughout.
For the compound `Cc1cccc(C)c1Nc1nc(C)c(C(=O)CC(=O)C(=O)Nc2c(C(C)C)cccc2C(C)C)s1`, the TGI in assay [1], in assay [2], in assay [3], in assay [4], in assay [5] and in assay [6] was above 100 µM in each case. Moreover, the TGI in assay [7], in assay [8], in assay [9] and in assay [10] was above 100 µM each time.
`CCOC(=O)c1cc(C2CCN(c3ccccc3)C2=O)c(C(=O)/C=C(/C)N)[nH]1` (stereo not given): the TGI in assay [1] is above 100 µM; in [2], 40.1 µM; in [3], above 100 µM; in assay [4], above 100 µM; in [5], above 100 µM; in assay [6], 46 µM. For the same compound, the TGI in assay [7], in assay [8], in [9] and in assay [10] was above 100 µM each time.
For `Cc1cc(O)c(/C=N/C(=S)Nc2ccccc2)c(=O)o1`, the TGI in assay [1], in assay [2], in [3], in assay [4], in assay [5] and in assay [6] was above 100 µM in each case. Also, the TGI in assay [7], in assay [8], in [9] and in assay [10] was above 100 µM throughout.
With `CCN(CC)CCCNc1[nH]ncc2c(C)c3nc4ccc(OC)cc4c3cc12`, the TGI in assay [1] came out at 9.16 µM; in assay [2], 2.74 µM; in assay [3] it was 2.89 µM; in assay [4], 4.66 µM; in assay [5] it was 15 µM; in assay [6], 4.16 µM. Moreover, the TGI was 0.0904 µM in [7], 2.9 µM in [8], 2.01 µM in assay [9] and 3.01 µM in assay [10].
Regarding `C=CCN(c1cc(OC)c2[nH]c(C(=O)OCC)c(C)c2c1[N+](=O)[O-])S(C)(=O)=O`, the TGI in assay [1] is above 100 µM; in [2] it was 61.7 µM; in assay [3] it was 29.1 µM; in [4], above 100 µM; in assay [5] it was 74.8 µM; in assay [6], above 100 µM. The TGI in [7] is 28.9 µM; in assay [8] it was 46.5 µM; in [9] it was above 100 µM; in assay [10] it was 51.3 µM.
In the case of `N#CCN(CC#N)C1CC=CCC1N(CC#N)CC#N` (stereo not given), the TGI in [1], in assay [2], in assay [3], in [4], in assay [5] and in assay [6] was above 100 µM each time. Further, the TGI in assay [7], in [8], in [9] and in assay [10] was above 100 µM in each case.
Turning to `COc1cccc2cc(C(C)=O)c(=O)oc12`, the TGI in assay [1], in [2], in [3], in assay [4], in [5] and in assay [6] was above 100 µM in each case. For the same compound, the TGI in [7], in assay [8], in assay [9] and in [10] was above 100 µM in each case.
